{"source": "patent US20260234651A1", "about": "“ACETYL-COA CARBOXYLASE INHIBITOR RESISTANT SORGHUM” (PIONEER HI-BRED INTERNATIONAL, INC., priority 2023, published 2026)", "type_in_all_cases": "in vivo, Sorghum bicolor", "key": {"[1]": {"tested_on": "three F1 hybrids with a single copy of the W2032C ACCase edit", "assay": "Field tolerance test, summary in words", "conditions": "1x or 2x Assure II", "method": "(§1) The ACCase edited plants generated in Example 1 were outcrossed with 3 male sterile lines in a controlled environment. The F1 plants which contain a single copy of the W2032C edit in the ACCase gene and the edited elite inbred line containing 2 copies of the W2032C ACCase (hereinafter referred to as […]) along with the non-edited elite inbred (wt control) and the 3 male sterile lines were tested in the field for efficacy. Four short rows, each row with ~100 seedlings, were planted for each variety in replicate. Once the plants reached the 5-6 leaves stage, replicate 1 for each variety was treated with a 1× dose of Assure II (Quizalofop-P-ethyl) and replicate 2 for each variety was treated with a 2× dose of Assure II (Quizalofop-P-ethyl). Plants were then scored for tolerance at 7- and 14-days post application. The plots were scored by giving a 1-9 score to each plot, with 1 being dead and 9 no visible response."}, "[2]": {"tested_on": "control plants without the W2032C ACCase edit", "assay": "Field tolerance test, summary in words", "conditions": "all plants dead at 10-14 days post spray", "method": "as §1"}, "[3]": {"tested_on": "F1 Hybrid 3_W2032C (single copy of W2032C ACCase)", "assay": "Field tolerance test, Quizalofop-P-ethyl (Assure II) spray", "conditions": "1 copy, 1-9 score, 1 dead, 9 no visible response", "method": "as §1\n(§2) The PH2545MW_W2032C was given score of 7 with 1× dose of Quizalofop-P-ethyl application (Table 4), as some twisting of the leaves due to herbicide injury was observed, however, after a week or so the twisting of the leaves may not be visible anymore because they were growing out of it, which may be indicated by the score change from 5 to 6 at day 7 and day 14 post 2× dose of Quizalofop-P-ethyl application."}, "[4]": {"tested_on": "Male Sterile 3_WT", "assay": "Field tolerance test, Quizalofop-P-ethyl (Assure II) spray", "conditions": "0 copies, 1-9 score, 1 dead, 9 no visible response", "method": "as §1, §2"}, "[5]": {"tested_on": "elite inbred_WT (non-edited elite inbred, wt control)", "assay": "Field tolerance test, Quizalofop-P-ethyl (Assure II) spray", "conditions": "0 copies W2032C, 1-9 score, 1 dead, 9 no visible response", "method": "as §1, §2"}, "[6]": {"tested_on": "F1 Hybrid 2_W2032C (single copy of W2032C ACCase)", "assay": "Field tolerance test, Quizalofop-P-ethyl (Assure II) spray", "conditions": "1 copy, 1-9 score, 1 dead, 9 no visible response", "method": "as §1, §2"}, "[7]": {"tested_on": "F1 Hybrid 1_W2032C (single copy of W2032C ACCase)", "assay": "Field tolerance test, Quizalofop-P-ethyl (Assure II) spray", "conditions": "1 copy, 1-9 score, 1 dead, 9 no visible response", "method": "as §1, §2"}, "[8]": {"tested_on": "Male Sterile 1_WT", "assay": "Field tolerance test, Quizalofop-P-ethyl (Assure II) spray", "conditions": "0 copies, 1-9 score, 1 dead, 9 no visible response", "method": "as §1, §2"}, "[9]": {"tested_on": "Male Sterile 2_WT", "assay": "Field tolerance test, Quizalofop-P-ethyl (Assure II) spray", "conditions": "0 copies, 1-9 score, 1 dead, 9 no visible response", "method": "as §1, §2"}, "[10]": {"tested_on": "elite inbred_W2032C (2 copies of W2032C ACCase)", "assay": "Field tolerance test, Quizalofop-P-ethyl (Assure II) spray", "conditions": "for 7-day Post Application Score / 14-day Post Application Score: elite inbred_W2032C, 2 copies", "method": "as §1, §2"}, "[11]": {"tested_on": "wild-type control plants", "assay": "Spray test of T1 plants with quizalofop-p-ethyl", "conditions": "7 fl. ounce (0.034-0.083 lb ai), all died", "excerpt": "(§3) ACCase edited T1 seeds were planted in flats, all seeds germinated and were heathy looking. Additionally, they were all able to produce T2 seeds with high seed count setting. Nineteen homozygous ACCase edited T1 plants at the 8-leaf stage were sprayed with quizalofop-p-ethyl at a rate of 7 fl. ounce (0.034-0.083 lb ai), which is the average dose from the Assure II label. […] A subset of the T1 plants after the spray test were kept to maturity and all produced T2 seeds with good seed setting. In contrast, the wild-type control plants were all susceptible to the quizalofop-p-ethyl spray and died."}, "[12]": {"tested_on": "homozygous ACCase edited T1 plants", "assay": "Spray test of T1 plants with quizalofop-p-ethyl", "conditions": "all 19 homozygous ACCase edited T1 plants, 8-leaf stage, 7 fl. ounce (0.034-0.083 lb ai)", "excerpt": "as §3"}, "[13]": {"conditions": "1x dose, 1-9 score, 1 dead, 9 no visible response"}, "[14]": {"conditions": "2x dose, 1-9 score, 1 dead, 9 no visible response"}}}
{"smiles": "CCOC(=O)[C@@H](C)Oc1ccc(Oc2cnc3cc(Cl)ccc3n2)cc1", "note": "[Quizalofop-P-ethyl]", "values": [{"measurement": "tolerance to the herbicide in the field", "setting": "[1]", "result": "some tolerance"}, {"measurement": "tolerance to the herbicide in the field", "setting": "[2]", "result": "no tolerance"}, {"measurement": "7-day Post Application Score", "setting": "[3]; 1x dose", "result": 5}, {"measurement": "14-day Post Application Score", "setting": "[3]; 1x dose", "result": 3}, {"measurement": "7-day Post Application Score", "setting": "[3]; 2x dose", "result": 5}, {"measurement": "14-day Post Application Score", "setting": "[3]; 2x dose", "result": 4}, {"measurement": "7-day Post Application Score", "setting": "[4]; 1x dose", "result": 3}, {"measurement": "14-day Post Application Score", "setting": "[4]; 1x dose", "result": 1}, {"measurement": "7-day Post Application Score", "setting": "[4]; 2x dose", "result": 2}, {"measurement": "14-day Post Application Score", "setting": "[4]; 2x dose", "result": 1}, {"measurement": "7-day Post Application Score", "setting": "[5]; 1x dose", "result": 3}, {"measurement": "14-day Post Application Score", "setting": "[5]; 1x dose", "result": 1}, {"measurement": "7-day Post Application Score", "setting": "[5]; 2x dose", "result": 3}, {"measurement": "14-day Post Application Score", "setting": "[5]; 2x dose", "result": 1}, {"measurement": "7-day Post Application Score", "setting": "[6]; 1x dose", "result": 5}, {"measurement": "14-day Post Application Score", "setting": "[6]; 1x dose", "result": 4}, {"measurement": "7-day Post Application Score", "setting": "[6]; 2x dose", "result": 5}, {"measurement": "14-day Post Application Score", "setting": "[6]; 2x dose", "result": 3}, {"measurement": "7-day Post Application Score", "setting": "[7]; 1x dose", "result": 5}, {"measurement": "14-day Post Application Score", "setting": "[7]; 1x dose", "result": 4}, {"measurement": "7-day Post Application Score", "setting": "[7]; 2x dose", "result": 4}, {"measurement": "14-day Post Application Score", "setting": "[7]; 2x dose", "result": 3}, {"measurement": "7-day Post Application Score", "setting": "[8]; 1x dose", "result": 2}, {"measurement": "14-day Post Application Score", "setting": "[8]; 1x dose", "result": 1}, {"measurement": "7-day Post Application Score", "setting": "[8]; 2x dose", "result": 2}, {"measurement": "14-day Post Application Score", "setting": "[8]; 2x dose", "result": 1}, {"measurement": "7-day Post Application Score", "setting": "[9]; 1x dose", "result": 2}, {"measurement": "14-day Post Application Score", "setting": "[9]; 1x dose", "result": 1}, {"measurement": "7-day Post Application Score", "setting": "[9]; 2x dose", "result": 2}, {"measurement": "14-day Post Application Score", "setting": "[9]; 2x dose", "result": 1}, {"measurement": "field tolerance score (day not stated)", "setting": "[10]; PH2545MW_W2032C, 1x dose, some twisting of the leaves, 1-9 score, 1 dead, 9 no visible response", "result": 7}, {"measurement": "7-day Post Application Score", "setting": "[10]; [13]", "result": 7}, {"measurement": "14-day Post Application Score", "setting": "[10]; [13]", "result": 7}, {"measurement": "7-day Post Application Score", "setting": "[10]; [14]", "result": 5}, {"measurement": "14-day Post Application Score", "setting": "[10]; [14]", "result": 6}, {"measurement": "tolerance to the herbicide in the field", "setting": "[10]; inbred_W2032C plants, 1x or 2x Assure II at 5-6 leaves stage", "result": "tolerance"}, {"measurement": "response of plants to the herbicide spray", "setting": "[11]", "result": "susceptible"}, {"measurement": "response of plants to the herbicide spray", "setting": "[12]", "result": "resistance (tolerance)"}]}
